Results as given in patent publication US20230133587A1, “Amino Acid Mediated Gene Delivery and Its Uses” (CHINESE INSTITUTE FOR BRAIN RESEARCH, BEIJING, priority 2020, published 2023).

System: astrocytes
Assay: Other amino acids promote uptake of plasmid vectors by astrocytes
Type: in vivo
Conditions: amino acid solution as vehicle
Experimental: Other amino acids, including serine, alanine, histidine, γ-aminobutyric acid, proline, lysine, and threonine, are tested. […] From the analysis of the transfection efficiency of various amino acids, it was seen that, except for alanine, the efficiency of L-type amino acids is much higher than that of D-type amino acids (please see FIG. 11).
Histidine, lysine, and arginine, which are also positively charged, are significant differences in delivery efficiency, and gene delivery efficiency of threonine, serine lysine, etc. also has vast differences.

Row | Structure (SMILES) | uptake of plasmid vectors by astrocytes
1 | C[C@@H](N)C(=O)O [D-Alanine] | promote astrocyte uptake of plasmid vector(s)
2 | N[C@@H](Cc1c[nH]cn1)C(=O)O [L-Histidine] | promote astrocyte uptake of plasmid vector(s)
3 | N[C@@H](CO)C(=O)O [L-Serine] | promote astrocyte uptake of plasmid vector(s)
4 | C[C@@H](O)[C@H](N)C(=O)O [L-Threonine] | promote astrocyte uptake of plasmid vector(s)
5 | C[C@H](N)C(=O)O [alanine] | can efficiently promote astrocytes to take up plasmid vectors
6 | N[C@@H](Cc1c[nH]cn1)C(=O)O [histidine] | can efficiently promote astrocytes to take up plasmid vectors
7 | NCCCC[C@H](N)C(=O)O [lysine] | can efficiently promote astrocytes to take up plasmid vectors
8 | O=C(O)[C@@H]1CCCN1 [proline] | can efficiently promote astrocytes to take up plasmid vectors
9 | N[C@@H](CO)C(=O)O [serine] | can efficiently promote astrocytes to take up plasmid vectors
10 | C[C@@H](O)[C@H](N)C(=O)O [threonine] | can efficiently promote astrocytes to take up plasmid vectors
11 | NCCCC(=O)O [γ-aminobutyric acid] | can efficiently promote astrocytes to take up plasmid vectors
